The values that follow come from patent publication US6511798B1, “Methods for the preparation of cell monolayers” (Zeneca Limited, priority 1998, dated 2003).

Like-named read-outs stand apart in the source and are kept apart here.

In series [1] the test system is cell monolayers on BIOCOAT "3 day" system or polycarbonate filters. The conditions noted are these: cited from earlier work.
The subject of another series is Caco-2 cell monolayer. The series can be described thus: in vitro. The protocol:
(§1) This was carried out with the hydrophilic markers, ^14C-mannitol and Lucifer Yellow.
(§2) Solutions of drug for screening are prepared with Hank's Balanced Salts solution (HBSS) buffered to pH7.4 with HEPES. Up to 1% DMSO may be added to aid solubilisation. These drug solutions are added to either the apical (1.5 ml) or the basolateral (3.0 ml) chambers of a 6 well system, and HBSS at pH7.4 is added to the opposite chamber. 0.5 ml samples are taken at regular time intervals from the receiver chamber and the volume replaced with fresh pre-warmed HBSS at pH7.4. A donor sample is taken initially and at the final time point. Samples are analysed using appropriate methods. The volumes are modified accordingly for other plate formats (e.g. 400 μL apical volume, 1 mL basolateral volume for a 24 well plate).
(§3) The results are expressed as cumulative amount or percentage transported versus time. An absorption apparent permeability coefficient, Papp, can been calculated where: [formula]
(§4) where dQ/dt is the permeability rate (over the linear portion of the curve), C0 is the initial concentration in the donor chamber and A (cm^2) is the surface area of the filter insert supporting the cell monolayer.

In series [2] the target is T1, apical di-peptide transporter (Homo sapiens, UniProt P46059).
T1 construct: show functional expression of the dipeptide carrier and p-glycoprotein; endogenous in cells; host or cells: Caco-2 (ECACC 86010202)
T1 sequence (P46059 1-708): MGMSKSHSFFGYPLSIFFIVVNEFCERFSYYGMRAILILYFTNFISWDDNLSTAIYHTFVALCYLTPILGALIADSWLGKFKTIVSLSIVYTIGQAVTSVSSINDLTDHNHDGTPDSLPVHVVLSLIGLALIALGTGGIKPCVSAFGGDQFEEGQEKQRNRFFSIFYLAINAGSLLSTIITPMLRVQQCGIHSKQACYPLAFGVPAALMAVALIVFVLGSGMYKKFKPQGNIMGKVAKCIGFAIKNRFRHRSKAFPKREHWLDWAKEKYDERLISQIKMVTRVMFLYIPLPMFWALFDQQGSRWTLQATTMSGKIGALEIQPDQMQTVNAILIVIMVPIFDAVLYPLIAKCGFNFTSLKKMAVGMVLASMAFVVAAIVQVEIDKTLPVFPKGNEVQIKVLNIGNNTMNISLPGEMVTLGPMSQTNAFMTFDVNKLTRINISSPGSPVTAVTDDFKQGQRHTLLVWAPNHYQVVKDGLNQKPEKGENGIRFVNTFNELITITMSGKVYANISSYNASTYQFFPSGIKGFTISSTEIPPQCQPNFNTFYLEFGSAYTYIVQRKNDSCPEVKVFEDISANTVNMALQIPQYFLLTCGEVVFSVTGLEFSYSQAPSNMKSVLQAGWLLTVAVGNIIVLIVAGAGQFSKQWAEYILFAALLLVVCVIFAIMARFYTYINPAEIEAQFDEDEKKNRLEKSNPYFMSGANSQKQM
As to the kind of experiment: Transport of 14C-Gly-sar across Caco-2 monolayers, A-B and B-A. The series is classed as in vitro ADME. To be noted: pH 6 and 7.4. The protocol: Samples are analysed using appropriate methods.
For orientation: Caco-2 cells form a polarised layer with tight junctions and transporters.

A short description of a further series: in vitro. To be noted: human, Caco-2, pH 7.4. The protocol: as §1, §2, §3, §4
A further series addresses P-glycoprotein (Homo sapiens, UniProt P08183). The conditions noted are these: 6 well Biocoat inserts; without verapamil. The procedure: as §2
The mark [3] stands for this setting: Polycarbonate (1), Artursson et al 1996, 14C-mannitol.

P-glycoprotein, sequence (P08183 whole entry): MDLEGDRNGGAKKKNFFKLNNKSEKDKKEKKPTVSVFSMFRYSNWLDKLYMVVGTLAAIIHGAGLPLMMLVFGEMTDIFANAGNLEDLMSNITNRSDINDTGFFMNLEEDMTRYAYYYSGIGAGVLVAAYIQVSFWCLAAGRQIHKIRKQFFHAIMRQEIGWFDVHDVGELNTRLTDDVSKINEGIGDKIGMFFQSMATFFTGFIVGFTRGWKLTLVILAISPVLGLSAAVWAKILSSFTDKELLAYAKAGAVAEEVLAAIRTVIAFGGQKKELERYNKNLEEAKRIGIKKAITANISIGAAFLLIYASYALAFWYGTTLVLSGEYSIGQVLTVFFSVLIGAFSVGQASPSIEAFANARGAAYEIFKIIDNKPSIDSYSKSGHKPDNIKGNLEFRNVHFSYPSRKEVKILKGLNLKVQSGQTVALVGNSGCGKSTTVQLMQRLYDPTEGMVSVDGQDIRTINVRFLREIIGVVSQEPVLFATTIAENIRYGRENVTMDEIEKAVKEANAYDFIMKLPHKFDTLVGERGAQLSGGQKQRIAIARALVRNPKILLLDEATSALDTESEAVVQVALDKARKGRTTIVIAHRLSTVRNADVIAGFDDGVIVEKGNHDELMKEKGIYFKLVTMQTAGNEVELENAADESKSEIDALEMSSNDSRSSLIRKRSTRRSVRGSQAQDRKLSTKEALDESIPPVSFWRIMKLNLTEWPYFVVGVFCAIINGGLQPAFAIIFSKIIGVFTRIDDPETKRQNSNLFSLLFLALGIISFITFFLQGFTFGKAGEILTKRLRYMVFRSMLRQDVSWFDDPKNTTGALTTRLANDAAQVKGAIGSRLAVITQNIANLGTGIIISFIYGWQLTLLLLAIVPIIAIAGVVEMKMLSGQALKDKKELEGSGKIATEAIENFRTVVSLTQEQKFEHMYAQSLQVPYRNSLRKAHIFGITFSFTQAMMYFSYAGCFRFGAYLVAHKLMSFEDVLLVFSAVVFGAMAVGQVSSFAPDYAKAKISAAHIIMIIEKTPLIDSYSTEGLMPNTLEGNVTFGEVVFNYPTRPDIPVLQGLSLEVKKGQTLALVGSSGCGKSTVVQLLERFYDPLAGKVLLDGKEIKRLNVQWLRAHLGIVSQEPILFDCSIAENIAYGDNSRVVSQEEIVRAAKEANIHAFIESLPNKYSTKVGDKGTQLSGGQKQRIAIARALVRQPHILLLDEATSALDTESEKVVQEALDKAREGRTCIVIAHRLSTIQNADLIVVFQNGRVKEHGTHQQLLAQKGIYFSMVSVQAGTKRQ

With Lucifer Yellow, the “% Transported/hour” value in series [1] (Polycarbonate (4), Hidalgo et al 1989, Lucifer Yellow) is 0.11%. Further, in the series with Caco-2 cell monolayer (Caco-2), the “% Transported/hour” value is given as 0.13% and the “Average Lucifer Yellow Transported” value was 0.13%.
For the molecule `CN(CC(=O)O)[14C](=O)CN` [^14C-Gly-sar], the “transport A-B versus B-A” value in series [2] (24 well PET inserts) and in series [2] (collagen coated 6 well Biocoat filters) was “increased transport in the A-B direction” throughout.
`OC[C@@H](O)[C@@H](O)[C@H](O)[C@H](O)CO` [^3H-Mannitol]: in series [1], the Papp is on record as 0.76 cm.s^−1 × 10^6.
As to `OC[C@@H](O)[C@@H](O)[C@H](O)[C@H](O)CO` [^14C-Mannitol, ^14C-mannitol], the Papp in series [1] (BIOCOAT "3 day" system, 14C-mannitol) is on record as less than 4.0 cm.s^−1 × 10^6; in series [1] (setting [3]) it was 0.1-1.0 cm.s^−1 × 10^6; in the series with Caco-2 cell monolayer (Caco-2) it was 0.4 cm.s^−1 × 10^6. Besides, the “% Transported/hour” value is given as 0.05% in series [1] (setting [3]); 1.5% in series [1] (Polycarbonate (3), Taub 1997, 14C-mannitol); less than 0.5% in the series with Caco-2 cell monolayer (human, Caco-2, 1 h, pH 7.4). Moreover, the “Average Mannitol Transported” value in the series with Caco-2 cell monolayer (human, Caco-2, 60 min, pH 7.4) is listed as 0.36-0.40%. Moreover, in “in vitro”, the Papp at 60 min was approximately 0.4 ×10⁻⁶ cm/s.
In the case of `CC[C@]1(O)C[C@@H]2CN(CCc3c([nH]c4ccccc34)[C@@](C(=O)OC)(c3cc4c(cc3OC)N(C)[C@H]3[C@@](O)(C(=O)OC)[C@H](OC(C)=O)[C@]5(CC)C=CCN6CC[C@]43[C@@H]65)C2)C1` [^3H-vinblastine], the “transport B to A versus A to B” value at P-glycoprotein is on record as “significantly greater B to A transport”.
